Source: patent US20090018111A1, “Novel Antimicrobial Medicament” (priority 2004, published 2009)
Where two headings read alike, the source gives them in different places.

Legend:
Experiment in all cases: Sensitivity test (agar dilution)
M. luteus ATCC9341 = assay type: cell-based, Micrococcus luteus; settings: Micrococcus luteus
Summary of the method: (§1)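 Strains were grown overnight at 37° C, brought to about 10^6 CFU/ml in gelatin-buffered saline, and ~5 μl inoculated onto MHA plates carrying two-fold dilution series of the test drug alone or in combination, following the Japan Chemotherapeutic Society agar dilution standard.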

Str. pyogenes Cook = assay type: cell-based, Streptococcus pyogenes; settings: Streptococcus pyogenes
Summary of the method: as §1

E. faecium ATCC19434 = assay type: cell-based, Enterococcus faecium; settings: for MIC: Enterococcus faecium
Summary of the method: as §1

B. subtilis ATCC6633 = assay type: cell-based, Bacillus subtilis; settings: Bacillus subtilis, B. subtilis ATCC6633, read-out: MIC concomitant
Summary of the method: as §1

C[C@H]1C=C(c2csc(SC3=C(C(=O)O)N4C(=O)[C@H]([C@@H](C)O)[C@H]4[C@H]3C)n2)CN1 [SM, (4R,5S,6S)-6-[(1R)-1-Hydroxyethyl]-4-methyl-3-({4-[(5S)-5-methyl-2,5-dihydro-1H-pyrrol-3-yl]-1,3-thiazol-2-yl}sulfanyl)-7-oxo-1-azabicyclo[3.2.0]hept-2-ene-2-carboxylic acid]
MIC (M. luteus ATCC9341; ATCC9341, Concomitant (AZT:SM = 1:1), M. luteus ATCC9341, read-out: MIC concomitant): ≤ 0.002 µg/mL | MIC (M. luteus ATCC9341; ATCC9341, Concomitant (BIPM:SM = 1:1), M. luteus ATCC9341, read-out: MIC concomitant): 0.004 µg/mL | MIC (M. luteus ATCC9341; ATCC9341, Concomitant (CAZ:SM = 1:1), M. luteus ATCC9341, read-out: MIC concomitant): ≤ 0.002 µg/mL | MIC (M. luteus ATCC9341; ATCC9341, Concomitant (CPFX:SM = 1:1), M. luteus ATCC9341, read-out: MIC concomitant): 0.004 µg/mL | MIC (M. luteus ATCC9341; ATCC9341, Concomitant (DRPM:SM = 1:1), M. luteus ATCC9341, read-out: MIC concomitant): ≤ 0.002 µg/mL | MIC (M. luteus ATCC9341; ATCC9341, Concomitant (IPM:SM = 1:1), read-out: MIC): 0.004 µg/mL | MIC (M. luteus ATCC9341; ATCC9341, Concomitant (MEPM:SM = 1:1), read-out: MIC): ≤ 0.016 µg/mL | MIC (M. luteus ATCC9341; ATCC9341, Concomitant (MEPM:SM = 1:2), read-out: MIC): ≤ 0.031 µg/mL | MIC (M. luteus ATCC9341; ATCC9341, Concomitant (MEPM:SM = 1:4), read-out: MIC): ≤ 0.063 µg/mL | MIC (M. luteus ATCC9341; ATCC9341, Concomitant (PAPM:SM = 1:1), M. luteus ATCC9341, read-out: MIC concomitant): ≤ 0.002 µg/mL | MIC (M. luteus ATCC9341; ATCC9341, Concomitant (PIPC:SM = 1:1), M. luteus ATCC9341, read-out: MIC concomitant): ≤ 0.002 µg/mL | MIC (M. luteus ATCC9341; ATCC9341, Concomitant drug (MEPM:SM = 2:1), read-out: MIC): ≤ 0.008 µg/mL | MIC (M. luteus ATCC9341; ATCC9341, alone, read-out: MIC): ≤ 0.008 µg/mL | MIC (M. luteus ATCC9341; ATCC9341, drug alone, M. luteus ATCC9341, read-out: MIC alone): 0.004 µg/mL | MIC (Str. pyogenes Cook; Concomitant (AZT:SM = 1:1), Str. pyogenes Cook, read-out: MIC concomitant): 0.004 µg/mL | MIC (Str. pyogenes Cook; Concomitant (BIPM:SM = 1:1), Str. pyogenes Cook, read-out: MIC concomitant): 0.004 µg/mL | MIC (Str. pyogenes Cook; Concomitant (CAZ:SM = 1:1), Str. pyogenes Cook, read-out: MIC concomitant): 0.004 µg/mL | MIC (Str. pyogenes Cook; Concomitant (CPFX:SM = 1:1), Str. pyogenes Cook, read-out: MIC concomitant): 0.004 µg/mL | MIC (Str. pyogenes Cook; Concomitant (DRPM:SM = 1:1), Str. pyogenes Cook, read-out: MIC concomitant): ≤ 0.002 µg/mL | MIC (Str. pyogenes Cook; Concomitant (IPM:SM = 1:1), read-out: MIC): ≤ 0.002 µg/mL | MIC (Str. pyogenes Cook; Concomitant (MEPM:SM = 1:1), read-out: MIC): ≤ 0.016 µg/mL | MIC (Str. pyogenes Cook; Concomitant (MEPM:SM = 1:2), read-out: MIC): ≤ 0.031 µg/mL | MIC (Str. pyogenes Cook; Concomitant (MEPM:SM = 1:4), read-out: MIC): ≤ 0.063 µg/mL | MIC (Str. pyogenes Cook; Concomitant (PAPM:SM = 1:1), Str. pyogenes Cook, read-out: MIC concomitant): ≤ 0.002 µg/mL | MIC (Str. pyogenes Cook; Concomitant (PIPC:SM = 1:1), Str. pyogenes Cook, read-out: MIC concomitant): ≤ 0.002 µg/mL | MIC (Str. pyogenes Cook; Concomitant drug (MEPM:SM = 2:1), read-out: MIC): ≤ 0.008 µg/mL | MIC (Str. pyogenes Cook; alone, read-out: MIC): ≤ 0.008 µg/mL | MIC (Str. pyogenes Cook; drug alone, Str. pyogenes Cook, read-out: MIC alone): 0.004 µg/mL | MIC (E. faecium ATCC19434; ATCC19434, Concomitant (AZT:SM = 1:1), E. faecium ATCC19434, read-out: MIC concomitant): 0.125 µg/mL | MIC (E. faecium ATCC19434; ATCC19434, Concomitant (BIPM:SM = 1:1), E. faecium ATCC19434, read-out: MIC concomitant): 0.25 µg/mL | MIC (E. faecium ATCC19434; ATCC19434, Concomitant (CAZ:SM = 1:1), E. faecium ATCC19434, read-out: MIC concomitant): 0.125 µg/mL | MIC (E. faecium ATCC19434; ATCC19434, Concomitant (CPFX:SM = 1:1), E. faecium ATCC19434, read-out: MIC concomitant): 0.25 µg/mL | MIC (E. faecium ATCC19434; ATCC19434, Concomitant (DRPM:SM = 1:1), E. faecium ATCC19434, read-out: MIC concomitant): 0.25 µg/mL | MIC (E. faecium ATCC19434; ATCC19434, Concomitant (IPM:SM = 1:1), read-out: MIC): 0.125 µg/mL | MIC (E. faecium ATCC19434; ATCC19434, Concomitant (MEPM:SM = 1:1), read-out: MIC): 0.125 µg/mL | MIC (E. faecium ATCC19434; ATCC19434, Concomitant (MEPM:SM = 1:2), read-out: MIC): 0.25 µg/mL | MIC (E. faecium ATCC19434; ATCC19434, Concomitant (MEPM:SM = 1:4), read-out: MIC): 0.125 µg/mL | MIC (E. faecium ATCC19434; ATCC19434, Concomitant (PAPM:SM = 1:1), E. faecium ATCC19434, read-out: MIC concomitant): 0.125 µg/mL | MIC (E. faecium ATCC19434; ATCC19434, Concomitant (PIPC:SM = 1:1), E. faecium ATCC19434, read-out: MIC concomitant): 0.125 µg/mL | MIC (E. faecium ATCC19434; ATCC19434, Concomitant drug (MEPM:SM = 2:1), read-out: MIC): 0.25 µg/mL | MIC (E. faecium ATCC19434; ATCC19434, alone, read-out: MIC): 0.25 µg/mL | MIC (E. faecium ATCC19434; ATCC19434, drug alone, E. faecium ATCC19434, read-out: MIC alone): 0.25 µg/mL | MIC alone (E. faecium ATCC19434; drug alone, E. faecium ATCC19434): 0.125 µg/mL | MIC (B. subtilis ATCC6633; ATCC6633, Concomitant (AZT:SM = 1:1)): ≤ 0.002 µg/mL | MIC (B. subtilis ATCC6633; ATCC6633, Concomitant (BIPM:SM = 1:1)): ≤ 0.002 µg/mL | MIC (B. subtilis ATCC6633; ATCC6633, Concomitant (CAZ:SM = 1:1)): ≤ 0.002 µg/mL
